Data published in patent US20260184691A1, “INHIBITORS AND DEGRADERS OF PIP4K PROTEIN” (Larkspur Biosciences, Inc., priority 2022, published 2026).

biological target: T1, endogenous PIP4K2C C-terminally tagged with HiBiT peptide in MOLT-4 cells (Homo sapiens, UniProt Q8TBX8); assay: HiBiT PIP4K2C degradation assay in MOLT-4 cells; type: cell-based; conditions: 24 hours, 10-point dose response, top concentration 10 micromolar, read-out: HiBIT-degradation MOLT4 PIP4k2C 24 hours DC50
T1 construct: to C-terminally tag endogenous PIP4K2C with HiBiT peptide; host or cells: MOLT-4 (CRISPR-Cas9 knock-in clone)
T1 sequence (Q8TBX8 1-421): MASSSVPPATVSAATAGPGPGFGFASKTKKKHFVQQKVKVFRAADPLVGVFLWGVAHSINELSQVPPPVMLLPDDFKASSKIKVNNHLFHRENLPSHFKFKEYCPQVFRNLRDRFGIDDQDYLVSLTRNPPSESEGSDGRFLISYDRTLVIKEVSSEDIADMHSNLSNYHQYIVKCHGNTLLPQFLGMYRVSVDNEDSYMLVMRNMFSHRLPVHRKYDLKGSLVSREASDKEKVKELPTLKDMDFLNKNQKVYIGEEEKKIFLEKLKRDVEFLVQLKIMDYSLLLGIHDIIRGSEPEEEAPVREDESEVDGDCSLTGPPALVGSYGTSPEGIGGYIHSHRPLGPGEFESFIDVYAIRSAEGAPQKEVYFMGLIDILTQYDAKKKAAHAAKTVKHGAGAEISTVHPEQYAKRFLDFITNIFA
Summary of the method: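 Cells bearing C-terminal HiBiT knock-in were exposed to a 10-point, 3-fold dilution series (top 10 micromolar, duplicate) for 24 h at 37C, 5% CO2. Remaining tagged protein read by lytic HiBiT luminescence; DC50 from Hill-equation fit.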

| DC50 [nM] | Compound |
| --- | --- |
| < 500 | Cn1c(=O)n(C2CCC(=O)NC2=O)c2ccc(C3CCN(C(=O)CN4CCC5(CC4)CCN(c4cncc(Nc6ncc(Cl)c(-c7cccc(C8CC8)c7)n6)c4)C5=O)CC3)cc21 (stereo not shown) [Compound 208, 3-[5-[1-[2-[2-[5-[[5-chloro-4-(3-cyclopropylphenyl)pyrimidin-2-yl]amino]-3-pyridyl]-1-oxo-2,8-diazaspiro[4.5]decan-8-yl]acetyl]-4-piperidyl]-3-methyl-2-oxo-benzimidazol-1-yl]piperidine-2,6-dione] |
| < 500 | Cn1c(=O)n(C2CCC(=O)NC2=O)c2ccc(C3CCN(CC(=O)N4CCC5(CC4)CCN(c4cncc(Nc6ncc(Cl)c(-c7cccc(C8CC8)c7)n6)c4)C5=O)CC3)cc21 (stereo not shown) [Compound 209, 3-(5-(1-(2-(2-(5-((5-chloro-4-(3-cyclopropylphenyl)pyrimidin-2-yl)amino)pyridin-3-yl)-1-oxo-2,8-diazaspiro[4.5]decan-8-yl)-2-oxoethyl)piperidin-4-yl)-3-methyl-2-oxo-2,3-dihydro-1H-benzo[d]imidazol-1-yl)piperidine-2,6-dione] |
| < 500 | Cn1c(=O)n(C2CCC(=O)NC2=O)c2ccc(C3CCN(CC(=O)N4CCC(C(=O)Nc5cncc(Nc6ncc(Cl)c(-c7cccc(C8CC8)c7)n6)c5)CC4)CC3)cc21 (stereo not shown) [Compound 210, N-(5-((5-chloro-4-(3-cyclopropylphenyl)pyrimidin-2-yl)amino)pyridin-3-yl)-1-(2-(4-(1-(2,6-dioxopiperidin-3-yl)-3-methyl-2-oxo-2,3-dihydro-1H-benzo[d]imidazol-5-yl)piperidin-1-yl)acetyl)piperidine-4-carboxamide] |
| < 500 | O=C1CCC(Nc2ccc(C3CCN(CCN4CCC5(CC4)CCN(c4cncc(Nc6ncc(Cl)c(-c7cccc(C8CC8)c7)n6)c4)C5=O)CC3)cc2)C(=O)N1 (stereo not shown) [Compound 211, 3-((4-(1-(2-(2-(5-((5-chloro-4-(3-cyclopropylphenyl)pyrimidin-2-yl)amino)pyridin-3-yl)-1-oxo-2,8-diazaspiro[4.5]decan-8-yl)ethyl)piperidin-4-yl)phenyl)amino)piperidine-2,6-dione] |

The next lines start with the compound.

| Compound | DC50 [nM] |
| --- | --- |
| O=C1CCC(Nc2ccc(C3CCN(CC(=O)N4CCC5(CC4)CCN(c4cncc(Nc6ncc(Cl)c(-c7cccc(C8CC8)c7)n6)c4)C5=O)CC3)cc2)C(=O)N1 (stereo not shown) [Compound 206, 3-[4-[1-[2-[2-[5-[[5-chloro-4-(3-cyclopropylphenyl)pyrimidin-2-yl]amino]-3-pyridyl]-1-oxo-2,8-diazaspiro[4.5]decan-8-yl]-2-oxo-ethyl]-4-piperidyl]anilino]piperidine-2,6-dione] | < 500 |
| O=C1CCC(N2Cc3cc(C4CCN(CC(=O)N5CCC6(CC5)CCN(c5cncc(Nc7ncc(Cl)c(-c8cccc(C9CC9)c8)n7)c5)C6=O)CC4)ccc3C2=O)C(=O)N1 (stereo not shown) [Compound 207, 3-(5-(1-(2-(2-(5-((5-chloro-4-(3-cyclopropylphenyl)pyrimidin-2-yl)amino)pyridin-3-yl)-1-oxo-2,8-diazaspiro[4.5]decan-8-yl)-2-oxoethyl)piperidin-4-yl)-1-oxoisoindolin-2-yl)piperidine-2,6-dione] | < 500 |
| O=C1CCC(Nc2ccc(N3CCC(CN4CCC5(CC4)CCN(c4cncc(Nc6ncc(Cl)c(N7CCCC(C8CC8)C7)n6)c4)C5=O)CC3)cc2)C(=O)N1 (stereo not shown) [Compound 212, 3-((4-(4-((2-(5-((5-chloro-4-(3-cyclopropylpiperidin-1-yl)pyrimidin-2-yl)amino)pyridin-3-yl)-1-oxo-2,8-diazaspiro[4.5]decan-8-yl)methyl)piperidin-1-yl)phenyl)amino)piperidine-2,6-dione] | < 500 |
